Article PMC9966726, “Methylene Blue Inhibits Cromakalim-Activated K^+ Currents in Follicle-Enclosed Oocytes” (Membranes, 2023)

Columns and labels:
[1] = test system: T1, KATP channels of follicular cells (follicle-enclosed Xenopus oocytes); assay: two-electrode voltage clamp, cromakalim-activated K+ current, follicle-enclosed oocytes; type: cell-based, Xenopus laevis; conditions: 100 μM cromakalim; 20 min MB preincubation; -20 mV; pH 7.5; noncompetitive, voltage-independent; slope 1.1
T1 construct: gene kcnj11; native channel, endogenous to follicular cells; pore tetramer with one SUR per pore subunit; isoforms not determined

[2] = test system: T1, KATP channels of follicular cells (follicle-enclosed Xenopus oocytes); assay: as above; type: cell-based, Xenopus laevis; conditions: channel opener; control without MB; -20 mV; pH 7.5; slope 0.91
[3] = test system: T1, KATP channels of follicular cells (follicle-enclosed Xenopus oocytes); assay: [3H]glibenclamide saturation binding, microsomal membranes, filtration; parameters: species or system Xenopus laevis; conditions: labelled compound; control without MB; 50 mM HEPES, pH 7.5, 22 °C, 60 min; sulfonylurea receptor site

## CN(C)c1ccc2nc3ccc(N(C)C)cc3[s+]c2c1 [MB, Methylene blue]
[1]
  IC50: 22.4 µM

## CC1(C)Oc2ccc(C#N)cc2C(N2CCCC2=O)C1O (stereo not drawn) [CKL, cromakalim]
[2]
  EC50: 194 ± 21 µM

## COc1ccc(Cl)cc1C(=O)NCCc1ccc(S(=O)(=O)NC(=O)NC2CCCCC2)cc1 [[^3H]glibenclamide]
[3]
  Kd: 0.00121 ± 0.00014 µM
